# Results: patent US20020164346A1, “Altered peptide ligands” (priority 2001, published 2002)
# Tested on: normal donor HLA-A2+ T cells
# Test: In vitro T cell education with peptide-pulsed autologous dendritic cells; lysis of 51Cr-labeled peptide-pulsed T2 cells
# Assay type: cell-based, human
# Description: Normal donor aphoresis products were obtained from Dana-Farber Cancer Research Institute (Boston, Mass.). PBMC were isolated by centrifugation over Ficoll (Nycomed, Oslo, Norway). CD8^+ T cells were isolated using magnetic beads (Dynal, Oslo, Norway) according to the manufacturers instructions. To generate autologous dendritic cells, monocytes were isolated from the PBMC and treated with GM-CSF (Immunex, Seattle, Wash.) and IL-4 (PeproTech, London, England) for 6 days as previously described. One day prior to establishing the T cell/DC cocultures, the DCs were pulsed with peptides (10 μg/ml) overnight followed by the addition of the previously isolated CD8+ T cells at a T:DC of 10:1. Cultures were restimulated with peptide-pulsed DCs. IL-2 (50 IU/ml) was introduced on day 8 and added every 3-4 days as needed. The bulk cultures were assayed one week after the fifth restimulation. Peptide-pulsed T2 cell targets were prepared as described above and adenovirus-infected target cells were allowed to incubate with the viruses for 48 hours at the indicated MOI prior to being used in the CTL assay. […]
# Altered peptides give rise to T cells that recognize the native epitope. […] All data points represent the average of 4 replicates and background lysis, as determined using T2 cells pulsed with equivalent amounts of DMSO containing no peptide, was subtracted out.
substance,measurement,setting,value
native gp100 peptide ligand: native (wild-type) gp100209-217 peptide epitope of the human melanoma antigen gp100,ability of peptide-educated T cells to lyse targets displaying the native antigen/ligand,T cells from normal (healthy) donors educated with the peptide,generally inefficient
same,eliciting reactive T cells (lysis of T2 cells pulsed with native peptide),"after 5 weekly stimulations, bulk T cell cultures, FIG. 3",relatively poor
